Data on 17 compounds can be found in patent US7517857B2, “Immune-modulating peptide” (POSCO, priority 2002, dated 2009).

Where a SMILES comes first, the peptide text is derived from it. Where no end group is shown, it is not given here. [ ]: non-standard residue; d: D form.

Format in all cases: cell-based
One experiment relates to human neutrophils. As to the kind of experiment: Superoxide generation in human neutrophils (cytochrome c reduction). Particulars: for superoxide generating activity: 100 nM of peptides; for O^2− (nmol/10^6 cells), superoxide generation: cytochrome c reduction; for superoxide generation: 10 μM concentration. As to the method: Peripheral blood leukocyte concentrates were donated by the Ulsan Red Cross Blood Center (Ulsan, Korea). Human neutrophils were isolated according to the standard procedures of dextran sedimentation, hypotonic lysis of erythrocytes, and a lymphocyte separation medium gradient as described above (9). The isolated human neutrophils were then used promptly.
The activity of the peptides, WKYMVm, peptides of SEQ ID NOs: 1 to 24, and wkymvm on superoxide generation in human neutrophils was measured. Superoxide anion generation was quantified by measuring reduction of cytochrome c using a microtiter 96-well plate ELISA reader (Bio-Tekinstruments, EL312e, Winooski, Vt.) as described (14). The human neutrophils (1×10^6 cells/100 μl of RPMI 1640 medium per well of a 96-well plate) were preincubated with 50 μM cytochrome c at 37° C. for 1 min and then incubated with the indicated concentrations of peptides. The superoxide generation was measured as a change in light absorption at 550 nm over 5 minutes at 1 min intervals. From at least four independent experiments, peptides with active amino acids at each position were chosen.

The next experiment concerns the target T1, FPR (Homo sapiens, UniProt P21462).
T1 construct: expressed in transfected cells; host or cells: RBL-2H3 (rat basophilic leukemia) cells, G418-selected
T1 sequence (P21462 1-350): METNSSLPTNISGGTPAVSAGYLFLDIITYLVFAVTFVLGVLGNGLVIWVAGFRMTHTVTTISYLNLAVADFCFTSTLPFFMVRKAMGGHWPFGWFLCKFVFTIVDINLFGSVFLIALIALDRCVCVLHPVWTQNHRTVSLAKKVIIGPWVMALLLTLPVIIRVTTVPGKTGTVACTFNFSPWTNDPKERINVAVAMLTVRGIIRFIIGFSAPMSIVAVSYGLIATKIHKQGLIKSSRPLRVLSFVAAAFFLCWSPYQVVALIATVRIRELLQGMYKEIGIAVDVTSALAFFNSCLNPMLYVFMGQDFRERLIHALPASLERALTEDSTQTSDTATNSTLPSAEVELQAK
In words: [Ca2+]i increase in FPR-expressing RBL-2H3 cells (fura-2). Particulars: for EC50 / EC50 (nM), intracellular calcium increase: fura-2 loaded; for EC50: read-out: EC50 (nM), intracellular calcium increase.

For the next experiment, the target named is T2, FPRL1 (Homo sapiens, UniProt P25090).
T2 construct: expressed in transfected cells; host or cells: RBL-2H3 (rat basophilic leukemia) cells, G418-selected
T2 sequence (P25090 1-351): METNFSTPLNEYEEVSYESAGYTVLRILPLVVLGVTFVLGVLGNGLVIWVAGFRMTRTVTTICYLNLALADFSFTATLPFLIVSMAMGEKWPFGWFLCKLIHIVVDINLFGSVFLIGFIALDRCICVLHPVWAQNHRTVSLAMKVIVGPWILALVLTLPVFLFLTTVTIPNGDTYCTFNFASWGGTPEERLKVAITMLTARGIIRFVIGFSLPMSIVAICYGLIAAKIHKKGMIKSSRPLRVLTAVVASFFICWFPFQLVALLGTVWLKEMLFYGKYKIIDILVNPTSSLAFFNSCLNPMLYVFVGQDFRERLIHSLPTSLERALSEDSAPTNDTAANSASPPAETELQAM
In words: [Ca2+]i increase in FPRL1-expressing RBL-2H3 cells (fura-2). The conditions noted are these: for EC50: fura-2 loaded, read-out: EC50 (nM), intracellular calcium increase. As to the method:
[…] The level of [Ca^2+]i was determined fluorometrically by Grynkiewicz's method using fura-2/AM (15). Briefly, prepared cells were incubated with 3 μM fura-2/AM at 37° C. for 50 min in a fresh serum-free RPMI 1640 medium under continuous stirring. 2×10^6 cells were aliquoted for each assay in Ca^2+-free Locke's solution (154 mM NaCl, 5.6 mM KCl, 1.2 mM MgCl2, 5 mM HEPES, pH 7.3, 10 mM glucose, and 0.2 mM EGTA). Fluorescence changes at the dual excitation wavelengths of 340 nm and 380 nm and the emission wavelength of 500 nm were measured, and the calibrated fluorescence ratio was translated into [Ca^2+]i. The peak level of the increased [Ca^2+]i was monitored.
[…] The level of [Ca^2+]i was determined by the same procedures as above. The peak level of the increased [Ca^2+]i was monitored.

Regarding `CSCC[C@H](NC(=O)[C@H](Cc1ccc(O)cc1)NC(=O)[C@H](CCC(=O)O)NC(=O)[C@@H](N)Cc1c[nH]c2ccccc12)C(=O)N[C@H](C(=O)N[C@H](CCSC)C(N)=O)C(C)C` [WEYMVm-NH2, Trp-Glu-Tyr-Met-Val-D-Met-NH2] (H-WEYMV[dM]-NH2; N-terminus assumed), the “superoxide generating activity” value with human neutrophils is on record as “stimulated superoxide generation”. Moreover, the results for the “O^2− (nmol/10^6 cells), superoxide generation” value (“O^2− (nmol/10^6 cells)” for short) in the experiment with human neutrophils (peptide 100 nM) and with human neutrophils (peptide 10 μM) were 52.9 ± 12.78 nmol/10^6 cells and 35.3 ± 2.88 nmol/10^6 cells, respectively.

Take `CSCC[C@H](NC(=O)[C@H](CCC(=O)O)NC(=O)[C@H](CCCCN)NC(=O)[C@@H](N)Cc1c[nH]c2ccccc12)C(=O)N[C@H](C(=O)N[C@H](CCSC)C(N)=O)C(C)C` [WKEMVm-NH2, Trp-Lys-Glu-Met-Val-D-Met-NH2] (H-WKEMV[dM]-NH2; N-terminus assumed): the results for the “O^2− (nmol/10^6 cells)” value with human neutrophils (peptide 100 nM) and in the experiment on human neutrophils (peptide 10 μM) were 4.1 ± 0.21 nmol/10^6 cells and 39.2 ± 4.71 nmol/10^6 cells, respectively. The EC50 on FPR is 1330 ± 88.8 nM.

With `CSCC[C@H](NC(=O)[C@H](CC(=O)O)NC(=O)[C@H](CCCCN)NC(=O)[C@@H](N)Cc1c[nH]c2ccccc12)C(=O)N[C@H](C(=O)N[C@H](CCSC)C(N)=O)C(C)C` [WKDMVm-NH2, Trp-Lys-Asp-Met-Val-D-Met-NH2] (H-WKDMV[dM]-NH2; N-terminus assumed), the entries for the “O^2− (nmol/10^6 cells)” value in the experiment with human neutrophils (peptide 100 nM) and in the experiment with human neutrophils (peptide 10 μM) were 16.3 ± 1.67 nmol/10^6 cells and 37.3 ± 2.78 nmol/10^6 cells, respectively. At FPR, the concentration for a half-maximal effect (EC50) was found to be 1330 ± 207 nM.

Regarding `CSCC[C@H](NC(=O)[C@@H](N)Cc1ccc(O)cc1)C(=O)N[C@H](C(=O)N[C@H](CCSC)C(N)=O)C(C)C` [YMVm-NH2, Tyr-Met-Val-D-Met-NH2] (H-YMV[dM]-NH2; N-terminus assumed), the “O^2− (nmol/10^6 cells)” value with human neutrophils (peptide 100 nM) amounted to 30.2 ± 2.74 nmol/10^6 cells; in the experiment with human neutrophils (peptide 10 μM), 41.8 ± 3.46 nmol/10^6 cells.

Turning to `CSCC[C@H](NC(=O)[C@H](Cc1c[nH]c2ccccc12)NC(=O)[C@H](CCCCN)NC(=O)[C@@H](N)Cc1c[nH]c2ccccc12)C(=O)N[C@H](C(=O)N[C@H](CCSC)C(N)=O)C(C)C` [WKWMVm-NH2, Trp-Lys-Trp-Met-Val-D-Met-NH2] (H-WKWMV[dM]-NH2; N-terminus assumed), the “[Ca^2+]i increasing activity” value is listed as “higher affinity to FPRL1” at FPRL1 and “more improved affinity for the FPR against the peptide WKYMVm” at FPR. For the same compound, the “superoxide generation” value in the experiment with human neutrophils is given as “more potent activity than WKYMVm”. Also, the entries for the “O^2− (nmol/10^6 cells)” value in the experiment on human neutrophils (peptide 100 nM) and in the experiment on human neutrophils (peptide 10 μM) were 11.5 ± 0.97 nmol/10^6 cells and 65.0 ± 12.10 nmol/10^6 cells, respectively.

As for “Trp-Lys-Tyr-Met-(Phe/Trp)-D-Met-NH2 [WKYM(F/W)m-NH2]”, the “[Ca^2+]i increasing activity” value with FPRL1 is recorded as “higher affinity to FPRL1”. The “O^2− (nmol/10^6 cells)” value in the experiment with human neutrophils (peptide 100 nM) worked out at 6.1 ± 0.77 nmol/10^6 cells; in the experiment with human neutrophils (peptide 10 μM) it was 45.6 ± 7.76 nmol/10^6 cells.

Turning to “WKYMV-NH2 [WKYMV-NH2, Trp-Lys-Tyr-Met-Val-NH2]”, the “O^2− (nmol/10^6 cells)” value was 9.2 ± 0.55 nmol/10^6 cells with human neutrophils (peptide 100 nM) and 25.6 ± 2.20 nmol/10^6 cells with human neutrophils (peptide 10 μM). Also, the “EC50 (nM), intracellular calcium increase” value on FPR was “inactive”.

For the compound `CSCC[C@H](NC(=O)[C@H](Cc1ccc(O)cc1)NC(=O)[C@H](CC(=O)O)NC(=O)[C@@H](N)Cc1c[nH]c2ccccc12)C(=O)N[C@H](C(=O)N[C@H](CCSC)C(N)=O)C(C)C` [WDYMVm-NH2, Trp-Asp-Tyr-Met-Val-D-Met-NH2] (H-WDYMV[dM]-NH2; N-terminus assumed), the “O^2− (nmol/10^6 cells)” value in the experiment with human neutrophils (peptide 100 nM) is 25.8 ± 6.56 nmol/10^6 cells; in the experiment with human neutrophils (peptide 10 μM), 37.3 ± 5.66 nmol/10^6 cells.

As to “WKYMVW-NH2 [WKYMVW-NH2, Trp-Lys-Tyr-Met-Val-Trp-NH2]”, the “superoxide generation” value with human neutrophils is “more potent activity than WKYMVm”. The “O^2− (nmol/10^6 cells)” value in the experiment on human neutrophils (peptide 100 nM) came to 11.5 ± 1.62 nmol/10^6 cells; in the experiment with human neutrophils (peptide 10 μM) it was 56.8 ± 4.60 nmol/10^6 cells. Besides, on FPR, the “EC50 (nM), intracellular calcium increase” value is “inactive”.

For “WKYMVG-NH2 [WKYMVG-NH2, Trp-Lys-Tyr-Met-Val-Gly-NH2]”, the “O^2− (nmol/10^6 cells)” value with human neutrophils (peptide 100 nM) is 4.4 ± 0.54 nmol/10^6 cells; in the experiment with human neutrophils (peptide 10 μM), 27.3 ± 1.40 nmol/10^6 cells. The “EC50 (nM), intracellular calcium increase” value on FPR was “inactive”.

As for `CSCC[C@H](NC(=O)[C@H](Cc1ccc(O)cc1)NC(=O)[C@H](Cc1c[nH]cn1)NC(=O)[C@@H](N)Cc1c[nH]c2ccccc12)C(=O)N[C@H](C(=O)N[C@H](CCSC)C(N)=O)C(C)C` [WHYMVm-NH2, Trp-His-Tyr-Met-Val-D-Met-NH2] (H-WHYMV[dM]-NH2; N-terminus assumed), the “O^2− (nmol/10^6 cells)” value in the experiment on human neutrophils (peptide 100 nM) and in the experiment with human neutrophils (peptide 10 μM) was 20.7 ± 7.85 nmol/10^6 cells each time. Also, the “[Ca^2+]i increasing activity” value on FPR is “more improved affinity for the FPR against the peptide WKYMVm”.

Regarding `CSCC[C@H](NC(=O)[C@H](Cc1c[nH]cn1)NC(=O)[C@H](CCCCN)NC(=O)[C@@H](N)Cc1c[nH]c2ccccc12)C(=O)N[C@H](C(=O)N[C@H](CCSC)C(N)=O)C(C)C` [WKHMVm-NH2, Trp-Lys-His-Met-Val-D-Met-NH2] (H-WKHMV[dM]-NH2; N-terminus assumed), the “O^2− (nmol/10^6 cells)” value came out at 29.5 ± 7.71 nmol/10^6 cells in the experiment with human neutrophils (peptide 100 nM) and 39.3 ± 4.10 nmol/10^6 cells in the experiment on human neutrophils (peptide 10 μM).

For the compound `CSCC[C@H](NC(=O)[C@H](Cc1ccc(O)cc1)NC(=O)[C@@H](N)CCCCN)C(=O)N[C@H](C(N)=O)C(C)C` [KYMV-NH2, Lys-Tyr-Met-Val-NH2] (H-KYMV-NH2), the EC50 at FPRL1 was greater than 30000 nM. Besides, at FPR, the “EC50 (nM), intracellular calcium increase” value was “inactive”.

On to `CSCC[C@H](N)C(=O)N[C@H](C(=O)N[C@H](CCSC)C(N)=O)C(C)C` [MVm-NH2, Met-Val-D-Met-NH2] (H-Met-Val-[dM]-NH2), for which the EC50 on FPRL1 was greater than 30000 nM. Further, at FPR, the “EC50 (nM), intracellular calcium increase” value was “inactive”.

As for “WKYMVV-NH2 [WKYMVV-NH2, Trp-Lys-Tyr-Met-Val-Val-NH2]”, the “O^2− (nmol/10^6 cells)” value stood at 5.0 ± 0.21 nmol/10^6 cells with human neutrophils (peptide 100 nM) and 36.3 ± 2.29 nmol/10^6 cells in the experiment on human neutrophils (peptide 10 μM). Also, the “EC50 (nM), intracellular calcium increase” value at FPR was “inactive”.

Turning to `CSCC[C@H](NC(=O)[C@H](Cc1ccc(O)cc1)NC(=O)[C@H](CCCCN)NC(=O)[C@@H](N)Cc1c[nH]c2ccccc12)C(=O)N[C@@H](Cc1ccc(O)cc1)C(=O)N[C@H](CCSC)C(N)=O` [WKYMYm-NH2, Trp-Lys-Tyr-Met-Tyr-D-Met-NH2] (H-WKYMY[dM]-NH2; N-terminus assumed), the “[Ca^2+]i increasing activity” value on FPRL1 is “higher affinity to FPRL1”. Besides, the “O^2− (nmol/10^6 cells)” value is on record as 25.8 ± 3.89 nmol/10^6 cells with human neutrophils (peptide 100 nM) and 42.9 ± 3.34 nmol/10^6 cells in the experiment with human neutrophils (peptide 10 μM).

As for `CSCC[C@H](NC(=O)[C@H](Cc1ccc(O)cc1)NC(=O)[C@@H](N)CCCCN)C(=O)N[C@H](C(=O)N[C@H](CCSC)C(N)=O)C(C)C` [KYMVm-NH2, Lys-Tyr-Met-Val-D-Met-NH2], in the experiment on human neutrophils, the “superoxide generating activity” value is listed as “stimulated superoxide generation”. The “O^2− (nmol/10^6 cells)” value was found to be 36.0 ± 3.56 nmol/10^6 cells in the experiment with human neutrophils (peptide 100 nM) and 49.2 ± 5.82 nmol/10^6 cells in the experiment with human neutrophils (peptide 10 μM).
